From patent US11931424B2, “Combination MCL-1 inhibitors with anti-body drug conjugates” (Gilead Sciences, Inc., priority 2021, dated 2024)

System: panel of breast cancer cell lines
Test: Compound A with targeted agents and chemotherapies, 72-hour in vitro proliferation assays
Format: cell-based
Conditions: 72-hour proliferation
[1] = AU565 cell line, compound A × partner
[2] = BT-20 cell line, compound A × partner
[3] = BT-474 cell line, compound A × partner
[4] = BT-549 cell line, compound A × partner
[5] = CAL-51 cell line, compound A × partner
[6] = CAL-85-1 cell line, compound A × partner
[7] = CAL-120 cell line, compound A × partner
[8] = CAL-148 cell line, compound A × partner
[9] = CAMA-1 cell line, compound A × partner
[10] = DU-4475 cell line, compound A × partner
[11] = EVSA-T cell line, compound A × partner
[12] = HCC1143 cell line, compound A × partner
[13] = MCF7 cells, Compound A × partner agent
[14] = MDA-MB-175-VII cells, Compound A × partner agent
[15] = MDA-MB-231 cells, Compound A × partner agent
[16] = MDA-MB-361 cells, Compound A × partner agent
[17] = MDA-MB-436 cells, Compound A × partner agent
[18] = MDA-MB-453 cells, Compound A × partner agent
[19] = MDA-MB-468 cells, Compound A × partner agent
[20] = SK-BR-3 cells, Compound A × partner agent
[21] = SUM159PT cells, combination of compound A with the named agent
[22] = T47D cells, combination of compound A with the named agent
[23] = ZR-75-1 cells, combination of compound A with the named agent
[24] = ZR-75-30 cells, combination of compound A with the named agent

`CC(=O)O[C@@]12CO[C@@H]1C[C@H](O)[C@@]1(C)C(=O)[C@H](O)C3=C(C)[C@@H](OC(=O)[C@H](O)[C@@H](NC(=O)OC(C)(C)C)c4ccccc4)C[C@@](O)([C@@H](OC(=O)c4ccccc4)[C@H]21)C3(C)C` [Docetaxel] was tested, and the “Bliss Volume” value [1] was 16.97, the HSA volume [1] was 3.68 and the “Loewe Volume” value [1] was 1.71. The “Synergy Score” value [1] was 7.58, the “Bliss Volume” value [2] was 27.23 and the HSA volume [2] was 21.05. The “Loewe Volume” value [2] was 19.90, the “Synergy Score” value [2] was 39.72 and the “Bliss Volume” value [3] was 16.39. For the same molecule, the HSA volume [3] was 9.80, the “Loewe Volume” value [3] was 8.62 and the “Synergy Score” value [3] was 14.51. The “Bliss Volume” value [4] was 22.57, the HSA volume [4] was 22.13 and the “Loewe Volume” value [4] was 22.04. For the same molecule, the “Synergy Score” value [4] was 39.66, the “Bliss Volume” value [5] was 2.26 and the HSA volume [5] was 3.35. The “Loewe Volume” value [5] was 3.12, the “Synergy Score” value [5] was 4.88 and the “Bliss Volume” value [6] was 13.68. The HSA volume [6] was 11.86, the “Loewe Volume” value [6] was 11.10 and the “Synergy Score” value [6] was 19.64. For the same molecule, the “Bliss Volume” value [7] was 8.92, the HSA volume [7] was 7.98 and the “Loewe Volume” value [7] was 8.39. The “Synergy Score” value [7] was 11.63, the “Bliss Volume” value [8] was 15.94 and the HSA volume [8] was 13.90. For the same molecule, the “Loewe Volume” value [8] was 12.92, the “Synergy Score” value [8] was 28.74 and the “Bliss Volume” value [9] was 29.57. The HSA volume [9] was 6.98, the “Loewe Volume” value [9] was 4.88 and the “Synergy Score” value [9] was 13.30. The “Bliss Volume” value [10] was 19.28, the HSA volume [10] was 13.68 and the “Loewe Volume” value [10] was 12.74. For the same molecule, the “Synergy Score” value [10] was 20.30, the “Bliss Volume” value [11] was 32.24 and the HSA volume [11] was 12.42. The “Loewe Volume” value [11] was 12.22, the “Synergy Score” value [11] was 24.87 and the “Bliss Volume” value (HCC38, compound A × partner) was 23.64. For the same molecule, the HSA volume (HCC38, compound A × partner) was 16.36, the “Loewe Volume” value (HCC38, compound A × partner) was 14.95 and the “Synergy Score” value (HCC38, compound A × partner) was 29.56. For the same molecule, the “Bliss Volume” value (HCC70, compound A × partner) was 25.33, the HSA volume (HCC70, compound A × partner) was 22.90 and the “Loewe Volume” value (HCC70, compound A × partner) was 20.81. For the same molecule, the “Synergy Score” value (HCC70, compound A × partner) was 39.82, the “Bliss Volume” value [12] was 11.00 and the HSA volume [12] was 9.41. For the same molecule, the “Loewe Volume” value [12] was 8.32, the “Synergy Score” value [12] was 18.84 and the “Bliss Volume” value (HCC1569, compound A × partner) was 6.58. The HSA volume (HCC1569, compound A × partner) was 8.56, the “Loewe Volume” value (HCC1569, compound A × partner) was 9.52 and the “Synergy Score” value (HCC1569, compound A × partner) was 11.65. The “Bliss Volume” value (HCC1806, compound A × partner) was 17.46, the HSA volume (HCC1806, compound A × partner) was 12.45 and the “Loewe Volume” value (HCC1806, compound A × partner) was 12.66. For the same molecule, the “Synergy Score” value (HCC1806, compound A × partner) was 25.50, the “Bliss Volume” value (HCC1937, compound A × partner) was 10.96 and the HSA volume (HCC1937, compound A × partner) was 11.56. For the same molecule, the “Loewe Volume” value (HCC1937, compound A × partner) was 11.67, the “Synergy Score” value (HCC1937, compound A × partner) was 11.60 and the “Bliss Volume” value (HCC1954, compound A × partner) was 25.28. For the same molecule, the HSA volume (HCC1954, compound A × partner) was 14.25, the “Loewe Volume” value (HCC1954, compound A × partner) was 12.73 and the “Synergy Score” value (HCC1954, compound A × partner) was 25.34. The “Bliss Volume” value (HCC2218, compound A × partner) was 11.69, the HSA volume (HCC2218, compound A × partner) was 6.53 and the “Loewe Volume” value (HCC2218, compound A × partner) was 5.20. For the same molecule, the “Synergy Score” value (HCC2218, compound A × partner) was 10.71, the “Bliss Volume” value (HDQ-P1, compound A × partner) was 7.85 and the HSA volume (HDQ-P1, compound A × partner) was 8.96. For the same molecule, the “Loewe Volume” value (HDQ-P1, compound A × partner) was 8.67, the “Synergy Score” value (HDQ-P1, compound A × partner) was 11.43 and the “Bliss Volume” value (HMC-1-8, compound A × partner) was 31.00. For the same molecule, the HSA volume (HMC-1-8, compound A × partner) was 8.49, the “Loewe Volume” value (HMC-1-8, compound A × partner) was 7.43 and the “Synergy Score” value (HMC-1-8, compound A × partner) was 16.44. For the same molecule, the “Bliss Volume” value (JIMT-1, compound A × partner) was 4.03, the HSA volume (JIMT-1, compound A × partner) was 4.64 and the “Loewe Volume” value (JIMT-1, compound A × partner) was 3.81. For the same molecule, the “Synergy Score” value (JIMT-1, compound A × partner) was 6.23, the “Bliss Volume” value (KPL-1, compound A × partner) was 5.18 and the HSA volume (KPL-1, compound A × partner) was 8.06. The “Loewe Volume” value (KPL-1, compound A × partner) was 7.67, the “Synergy Score” value (KPL-1, compound A × partner) was 10.20 and the “Bliss Volume” value [13] was 14.35. For the same molecule, the HSA volume [13] was 11.99, the “Loewe Volume” value [13] was 11.64 and the “Synergy Score” value [13] was 17.93. The “Bliss Volume” value [14] was 16.97, the HSA volume [14] was 10.22 and the “Loewe Volume” value [14] was 12.14. The “Synergy Score” value [14] was 15.31, the “Bliss Volume” value [15] was 5.15 and the HSA volume [15] was 7.49. For the same molecule, the “Loewe Volume” value [15] was 6.89, the “Synergy Score” value [15] was 11.57 and the “Bliss Volume” value [16] was −0.86. The HSA volume [16] was −2.31, the “Loewe Volume” value [16] was −3.71 and the “Synergy Score” value [16] was 4.61. The “Bliss Volume” value [17] was 1.49, the HSA volume [17] was 1.67 and the “Loewe Volume” value [17] was 1.48. For the same molecule, the “Bliss Volume” value [18] was 30.81, the HSA volume [18] was 22.87 and the “Loewe Volume” value [18] was 21.87. The “Synergy Score” value [18] was 44.90, the “Bliss Volume” value [19] was 28.07 and the HSA volume [19] was 11.28. For the same molecule, the “Loewe Volume” value [19] was 10.11, the “Synergy Score” value [19] was 20.73 and the “Bliss Volume” value [20] was 14.70. For the same molecule, the HSA volume [20] was 4.18, the “Loewe Volume” value [20] was 2.95 and the “Synergy Score” value [20] was 7.33. For the same molecule, the “Bliss Volume” value [21] was 18.66, the HSA volume [21] was 18.88 and the “Loewe Volume” value [21] was 17.94. For the same molecule, the “Synergy Score” value [21] was 33.03, the “Bliss Volume” value [22] was −1.55 and the HSA volume [22] was 2.30. The “Loewe Volume” value [22] was 1.76, the “Synergy Score” value [22] was 6.53 and the “Bliss Volume” value [23] was 16.15. The HSA volume [23] was 16.66, the “Loewe Volume” value [23] was 17.29 and the “Synergy Score” value [23] was 25.42. The “Bliss Volume” value [24] was 6.48, the HSA volume [24] was 3.70 and the “Loewe Volume” value [24] was 2.62. For the same molecule, the “Synergy Score” value [24] was 8.08.
